Results as given in publication PMC12902737 (Biotechnology and Applied Biochemistry, 2025).
Read-outs that look alike come from different tables or passages of the source.

Tests used:
[1] = test system: ALR2; parameters: method as in ref 79 (Sever et al.); conditions: ref 79 (Sever et al.); cited from earlier work
[2] = target: ALR2 enzyme (Ovis aries, UniProt A0ACI6S8R2); assay: ALR2 enzyme activity / in vitro inhibition (NADPH absorbance decrease at 340 nm, DL-glyceraldehyde substrate); assay type: biochemical
Experimental: By tracking the shift in absorbance at 340 nm brought on by a decrease in NADPH, ALR2 activity was ascertained. The reaction mixture for ALR2 activity consists of 0.8 M Na‐phosphate buffer (pH = 5.5), NADPH (0.11 mM), DL‐glyceraldehyde (4.7 mM), and enzyme solution [36, 37]. […] Every measurement was taken three times.
The K I values and inhibition types were ascertained using the Lineweaver and Burk curves (Figure 5).

[3] = test system: ALR2; parameters: method as in ref 80 (Racowitz et al.); conditions: ref 80 (Racowitz et al.); cited from earlier work

| Molecule | Inhibition type ([2]; Lineweaver-Burk curves) | other results |
| --- | --- | --- |
| O=c1c(O)c(-c2ccc(O)c(O)c2)oc2cc(O)cc(O)c12 [quercetin] | – | IC50 [1]: 3230 nM |
| Fc1ccc(-c2ccno2)cc1 [f, 5‐(4‐fluorophenyl) isoxazole] | Competitive | – |
| Brc1ccc(-c2ccon2)cc1 [d, 3‐(4‐bromophenyl) isoxazole] | Competitive | – |
| O=[N+]([O-])c1ccc(-c2ccon2)cc1 [Compound c, 3‐(4‐nitrophenyl) isoxazole] | Competitive | – |
| O=C1NC(=O)[C@@]2(CCOc3ccc(F)cc32)N1 [sorbinil] | – | IC50 [3]: 3420 ± 20 nM |
| Isoxazole | Noncompetitive | Ki ([2]; mean ± standard error of mean, Lineweaver-Burk curves): 89.5 ± 4.68 nM; IC50 ([2]; mean ± standard error of mean, from Activity (%) vs compound graphs): 43 ± 1.64 nM |
| O=C(O)Cc1nn(Cc2ccc(Br)cc2F)c(=O)c2ccccc12 [ponalrestat] | – | IC50 [3]: 80 nM |
| COc1ccc(-c2ccno2)cc1 [h, 5‐(4‐methoxyphenyl) isoxazole] | Competitive | – |
| Clc1ccc(-c2ccno2)cc1 [g, 5‐(4‐chlorophenyl) isoxazole] | Competitive | – |
| CC(/C=C1\SC(=S)N(CC(=O)O)C1=O)=C\c1ccccc1 [EPR, Epalrestat, reference compound] | – | Inhibition type [2]: Noncompetitive |
| Fc1ccc(-c2ccon2)cc1 [e, 3‐(4‐fluorophenyl) isoxazole] | Competitive | – |
| Clc1ccc(-c2ccon2)cc1 [b, 3‐(4‐chlorophenyl) isoxazole] | Competitive | – |
